Experimental data as given in patent US20060183921A1, “Pharmaceutically active compounds and methods of use” (priority 2001, published 2006).

Tests used:
[1] = molecular target: T1, human recombinant A1-adenosine receptors (Homo sapiens, UniProt P30542); assay: Measurement of cAMP enhancement in CHO cells (allosteric enhancement, cAMP content by radioimmunoassay); assay type: cell-based; conditions: CHO:huA1 cells, forskolin 1 μM, rolipram 20 μM, CPA 0.01 nM, 6 min at 36° C., control 100%
T1 construct: expressed in transfected cells; host or cells: CHO (Chinese hamster ovary) cells, CHO:huA1, under G-418 selection
T1 sequence (P30542 1-326): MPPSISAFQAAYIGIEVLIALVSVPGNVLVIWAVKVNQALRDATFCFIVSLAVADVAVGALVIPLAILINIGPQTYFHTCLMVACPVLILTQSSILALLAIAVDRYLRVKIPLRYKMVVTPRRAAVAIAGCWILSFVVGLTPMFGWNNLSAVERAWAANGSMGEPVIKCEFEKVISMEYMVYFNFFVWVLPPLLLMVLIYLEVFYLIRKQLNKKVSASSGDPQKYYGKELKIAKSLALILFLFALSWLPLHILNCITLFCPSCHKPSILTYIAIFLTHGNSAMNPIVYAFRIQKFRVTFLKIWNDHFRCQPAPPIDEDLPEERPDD
Procedure: Chinese hamster ovary cells expressing human recombinant A1-adenosine receptors (CHO:huA1 cells) at a density of approximately 8000 fmol/mg protein were prepared as previously described (Kollias-Baker et al., (1997), J. Pharmacol. Exp. Ther. 281: 761-768) and aliquots of the cells at low passage numbers were frozen and stored in liquid nitrogen. When compounds were tested, an aliquot of CHO:huA1 cells were rapidly thawed after removal from liquid nitrogen, then grown in Ham's F12 culture medium with 10% fetal bovine serum and 0.5 mg/mL of antibiotic G-418 (Shryock, Ozeck, and Belardinelli (1998), Mol. Pharmacol. 53: 886-893). Cells were passaged thrice weekly. Aliquots of cells were placed into 12-well plates with culture medium, serum, and antibiotic for 48 hours, by which time the cells had grown to a confluent monolayer.
Allosteric enhancement was measured as the action of a test compound at different concentrations (0.01, 0.1, 1 and 10 μM) to reduce the cAMP content of CHO:huA1 cells. To initiate an experiment, growth medium was removed from the 12-well plates and cells were washed once with warm Hanks' buffered saline. The wash solution was then removed and replaced with fresh Hanks' solution containing forskolin (1 μM), rolipram (20 μM), N^6-cyclopentyladenosine (CPA, 0.01 nM), adenosine deaminase (2 U/mL), and the test compound. Forskolin was used to stimulate the activity of adenylyl cyclase, rolipram to inhibit cAMP phosphodiesterase, adenosine deaminase to degrade endogenous adenosine, and CPA to cause a small increase of the number of activated adenosine receptors. After 6 min of incubation at 36° C. in the presence of test compound, the incubation solution was removed and hydrochloric acid (final concentration 50 mM) was added to terminate drug action. The content of cAMP in acidified extracts of cells was determined by radioimmunoassay as previously described (Kollias-Baker et al., (1997), J. Pharmacol. Exp. Ther. 281: 761-768). Because the magnitude of the effects of allosteric enhancers on CHO:huA1 cells changed subtly with passage number and differed slightly among different aliquots of cells, the actions of the test compounds and the action of a reference compound (PD 81,723) were assessed in each experiment. The effect of each test compound on cAMP content is presented in the accompanying table as a percentage of the value of cAMP content in the absence of drug (control, 100%). Each value is a mean±standard error of 6 determinations in each of the number of experiments indicated in the “n” column of the table.

Row | SMILES | Change in cAMP Content from Control (Mean ± SEM) ([1]; 0.01 μM test compound) [%] | Change in cAMP Content from Control (Mean ± SEM) ([1]; 0.1 μM test compound) [%] | Change in cAMP Content from Control (Mean ± SEM) ([1]; 1 μM test compound) [%] | Change in cAMP Content from Control (Mean ± SEM) ([1]; 10 μM test compound) [%] | melting point [°C]
1 | Nc1scc2c1C(=O)c1ccc(Cl)cc1-2 [Example 5, 1-Amino-5-chloro-2-thia-cyclopenta[a]inden-8-one] |  |  |  |  | 201 to 202
2 | Nc1scc2c1C(=O)c1c-2ccc(Cl)c1Cl [Example 6, 1-Amino-6,7-dichloro-2-thia-cyclopenta[a]inden-8-one] |  |  |  |  | 254 to 255
3 | Nc1scc2c1C(=O)c1c(Cl)cccc1-2 [Example 4, 1-Amino-7-chloro-2-thia-cyclopenta[a]inden-8-one] |  |  |  |  | 183 to 185
4 | Cc1ccc2c(c1)-c1csc(N)c1C2=O [Example 3, 1-Amino-5-methyl-2-thia-cyclopenta[a]inden-8-one] |  |  |  |  | 157 to 159
5 | Cc1cccc2c1C(=O)c1c-2csc1N [Example 2, 1-Amino-7-methyl-2-thia-cyclopenta[a]inden-8-one] |  |  |  |  | 196 to 198
6 | Nc1scc2c1C(=O)c1cc(Br)ccc1-2 [Example 21, 1-Amino-6-bromo-2-thia-cyclopenta[a]inden-8-one] | −5 ± 4 | −15 ± 2 | 4 ± 5 | −16 ± 3 | 

The remaining lines, values ahead:

Row | Change in cAMP Content from Control (Mean ± SEM) ([1]; 0.01 μM test compound) [%] | Change in cAMP Content from Control (Mean ± SEM) ([1]; 0.1 μM test compound) [%] | Change in cAMP Content from Control (Mean ± SEM) ([1]; 1 μM test compound) [%] | Change in cAMP Content from Control (Mean ± SEM) ([1]; 10 μM test compound) [%] | melting point [°C] | SMILES
7 | 5 ± 3 | 5 ± 3 | −1 ± 1 | −23 ± 6 |  | Nc1ccc2c(c1)C(=O)c1c-2csc1N [Example 24, 1,6-Diamino-2-thia-cyclopenta[a]inden-8-one]
8 | 6 ± 3 | 8 ± 5 | 8 ± 9 | 0 ± 9 |  | Nc1scc2c1C(=O)c1c(Cl)cccc1C21SCCCS1 [Example 27, 3-Amino-5-chloro-9-spiro(1,3-dithian-2-yl)-9H-naphtho[2,3-c]thiophene-4-one]
9 | 4 ± 2 | −1 ± 8 | 0 ± 7 | −17 ± 2 |  | Nc1scc2c1C(O)c1ccc(Cl)cc1-2 (stereo not shown) [Example 22, 1-Amino-5-chloro-8-hydroxy-2-thia-cyclopenta[a]indene]
10 | 4 ± 2 | 8 ± 3 | −32 ± 2 | −75 ± 1 |  | Cc1sc(N)c(C(=O)c2cccc(C(F)(F)F)c2)c1C [PD 81,72, reference compound]
11 | 0 ± 5 | −9 ± 8 | −46 ± 2 | −75 ± 3 |  | Nc1scc2c1C(=O)c1ccc(Cl)c(Cl)c1-2 [Example 25, 1-Amino-4,5-dichloro-2-thia-cyclopenta[a]inden-8-one]
12 | −4 ± 1 | −1 ± 7 | 15 ± 6 | 25 ± 7 |  | Nc1sc2c3c1C(=O)c1ccc(Cl)cc1C3CN(Cc1ccccc1)C2 (stereo not shown) [Example 26, 5-Amino-2-benzyl-9-chloro-1,2,3,10b-tetrahydro-6H-benzo[h]thieno[2,3,4-de]isoquinolin-6-one]
13 | −7 ± 2 | 9 ± 9 | −16 ± 3 | −42 ± 1 |  | CC(=O)Nc1scc2c1C(=O)c1ccc(Cl)cc1-2 [Example 23, 1-Acetylamino-5-chloro-2-thia-cyclopenta[a]inden-8-one]
